{
  "source": "patent US4775674A",
  "about": "“Imidazoquinolinylether derivatives useful as phosphodiesterase and blood aggregation inhibitors” (Bristol-Myers Company, priority 1986, dated 1988)",
  "key": {"[1]": {"tested_on": "platelet aggregation (Ex Vivo vs. ADP)", "assay": "Inhibition of platelet aggregation following oral administration (Ex vivo)", "type": "in vivo", "settings": "Rattus norvegicus, rats, oral by gavage, 2 hours after dosing", "protocol": "This test is sometimes referred to in the art as an Ex vivo method and was initially described by Fleming, et al., Arch. Int. Pharmacodyn. Ther., 199, 164 (1972). Briefly, the assay is essentially carried out as follows.\nAggregometry is performed in vitro as previously described on platelet rich plasma samples obtained from rats dosed with either test compounds or the vehicle. In all cases, activity is determined 2 hours after the drug is administered orally at various doses by gavage as a suspension in […] plus a few drops of Tween 20."}, "[2]": {"tested_on": "collagen-induced platelet aggregation", "assay": "In vitro inhibition of platelet aggregation, collagen-induced (rabbit platelet rich plasma)", "type": "cell-based", "settings": "Oryctolagus cuniculus, collagen suspension 0.05 ml, read-out: Platelet Inhibition In Vitro - Rabbit PRP EC50 vs. collagen", "protocol": "(§1) The aggregometer method of Born (1), as modified by Mustard, et al. (2) was used to assess the in vitro activity of the various compounds as to inhibition of adenosine diphosphate (ADP) and collagen-induced platelet aggregation. Platelet rich plasma (PRP) was separated by centrifugation from citrated (3.8 percent) rabbit blood. […] The various compounds tested were dissolved in dimethylsulfoxide (DMSO) so that 5 mcl added to the platelet rich plasma would yield the desired test concentration. Vehicle control trials were done and compared with aggregation induced in platelet rich plasma containing various concentrations of the test compounds. Dose response curves were obtained and Effective Concentration (EC50) values calculated."}, "[3]": {"tested_on": "adenosine diphosphate (ADP)-induced platelet aggregation", "assay": "In vitro inhibition of platelet aggregation, ADP-induced (rabbit platelet rich plasma)", "type": "cell-based", "settings": "Oryctolagus cuniculus, ADP 0.5 mcg/ml, read-out: Platelet Inhibition In Vitro - Rabbit PRP EC50 vs. ADP", "protocol": "as §1"}, "[4]": {"target": "T1, cAMP phosphodiesterase (human platelets) (Homo sapiens, UniProt Q14432)", "T1 construct": "enzynme obtained from human platelets; from tissue; host or cells: human platelets", "T1 sequence (Q14432 whole entry)": "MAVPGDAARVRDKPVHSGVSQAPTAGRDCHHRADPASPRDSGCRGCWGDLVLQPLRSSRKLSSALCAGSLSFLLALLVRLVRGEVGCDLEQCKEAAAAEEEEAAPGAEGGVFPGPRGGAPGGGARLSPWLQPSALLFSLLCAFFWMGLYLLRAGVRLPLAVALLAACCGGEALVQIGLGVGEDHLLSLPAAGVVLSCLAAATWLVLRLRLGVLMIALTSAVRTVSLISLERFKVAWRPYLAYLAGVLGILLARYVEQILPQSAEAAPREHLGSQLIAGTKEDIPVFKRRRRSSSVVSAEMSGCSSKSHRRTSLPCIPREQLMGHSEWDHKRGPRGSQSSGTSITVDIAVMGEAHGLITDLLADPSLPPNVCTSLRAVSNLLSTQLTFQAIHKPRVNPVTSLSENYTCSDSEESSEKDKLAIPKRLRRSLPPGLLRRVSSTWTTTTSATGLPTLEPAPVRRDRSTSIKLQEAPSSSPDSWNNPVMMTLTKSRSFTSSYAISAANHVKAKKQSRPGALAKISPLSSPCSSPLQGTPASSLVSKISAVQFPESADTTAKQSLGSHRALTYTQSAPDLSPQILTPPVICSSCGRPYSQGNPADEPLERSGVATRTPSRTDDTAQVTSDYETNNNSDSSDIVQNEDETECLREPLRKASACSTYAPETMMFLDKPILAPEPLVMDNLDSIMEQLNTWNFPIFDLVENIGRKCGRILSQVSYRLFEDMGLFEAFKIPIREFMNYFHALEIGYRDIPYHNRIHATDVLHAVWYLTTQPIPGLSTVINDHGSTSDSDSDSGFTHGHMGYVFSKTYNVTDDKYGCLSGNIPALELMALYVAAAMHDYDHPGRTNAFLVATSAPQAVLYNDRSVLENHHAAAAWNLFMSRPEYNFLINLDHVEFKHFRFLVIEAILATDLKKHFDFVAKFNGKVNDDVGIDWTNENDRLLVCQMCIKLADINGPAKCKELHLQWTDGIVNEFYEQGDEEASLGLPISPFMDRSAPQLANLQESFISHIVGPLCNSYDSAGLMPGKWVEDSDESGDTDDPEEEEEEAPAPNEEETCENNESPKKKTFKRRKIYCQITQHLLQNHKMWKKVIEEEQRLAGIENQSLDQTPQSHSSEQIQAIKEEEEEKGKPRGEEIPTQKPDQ", "assay": "Inhibition of cyclic AMP phosphodiesterase", "type": "biochemical", "settings": "PDE from human platelets", "protocol": "This assay is carried out essentially as described by Thompson, et al., Methods in Enzymology, 38, 205-212 (1974). Briefly, tritium labeled cyclic adenosine monophosphate (cAMP) is incubated with a phosphodiesterase (PDE) enzynme obtained from human platelets which converts a portion of the cAMP to 5'AMP in culture tubes. This reaction is terminated by submerging the tubes in a boiling water bath after which they are placed on ice and an aliquot of snake venom is added to each tube. This, during a second incubation, converts the 5'AMP to adenosine. Ion exchange resin is added to bind the remaining cyclic AMP. The tubes are centrifuged to sediment the resin and a portion of the clear supernatent (which contains radioactive adenosine) is counted in a liquid scintillation counter. The cAMP phosphodiesterase inhibition activity of a test agent is determined by pre-incubating the PDE enzyme preparation with the test agent."}, "[5]": {"tested_on": "ferrets (right ventricular contractile force, blood pressure)", "assay": "In vivo inotropic activity in ferrets", "design": "species or system ferret", "settings": "Mustela putorius, 1 h, anesthetized ferret, intraduodenal, 60 minutes", "protocol": "This test is carried out in ferrets as follows. Fasted anesthetized ferrets are instrumented to study hemodynamic parameters as well as right ventricular contractile force (RVCF) using a Walton-Brodie open strain guage arch. Drugs are administered intraduodenally as solutions in DMSO (1 mL or less) and effects on myocardial contractile force and other parameters are monitored for 60 minutes after dosing. Changes in contractile force in response to drug treatment are expressed in terms of percent change from predose control."}, "[6]": {"settings": "vs predose control, read-out: Maximum Percentage Change Right Ventricular Contractile Force (RVCF)"}, "[7]": {"settings": "read-out: Maximum Percentage Change Blood Pressure"}},
  "note": "Like-named read-outs stand apart in the source and are kept apart here.",
  "data": [
    {"smiles": "COC(=O)CCCOc1ccc2nc3[nH]c(=O)[nH]c3cc2c1", "note": "[Example 10, Methyl 4-[(2,3-Dihydro-2-oxo-1H-imidazo[4,5-b]quinolin-7-yl)oxy]butanoate]", "values": [
      {"measurement": "ED50", "setting": "[1]", "result": 4.4, "unit": "mg/kg"},
      {"measurement": "EC50", "setting": "[2]", "result": 6, "unit": "ng/mL"},
      {"measurement": "EC50", "setting": "[3]", "result": 20, "unit": "ng/mL"},
      {"measurement": "IC50", "setting": "[4]", "result": 400, "unit": "nM"},
      {"measurement": "change in vivo at 0.3 mg/kg", "setting": "[5]; [6]", "result": "9 ± 10", "unit": "%"},
      {"measurement": "change in vivo at 0.3 mg/kg", "setting": "[5]; [7]", "result": "-14 ± 9", "unit": "%"},
      {"measurement": "change in vivo at 3 mg/kg", "setting": "[5]; [6]", "result": "-9 ± 1", "unit": "%"},
      {"measurement": "change in vivo at 3 mg/kg", "setting": "[5]; [7]", "result": "-14 ± 8", "unit": "%"}
    ]},
    {"smiles": "O=C(CCCOc1ccc2nc3[nH]c(=O)[nH]c3cc2c1)NC12CC3CC(CC(C3)C1)C2", "note": "[Example 16, 4-[(2,3-Dihydro-2-oxo-1H-imidazo[4,5-b]quinolin-7-yl)oxy]-N-(tricyclo[3.3.1^3,7]decan-7-yl)butanamide]", "values": [
      {"measurement": "ED50", "setting": "[1]", "result": 4, "unit": "mg/kg"},
      {"measurement": "EC50", "setting": "[2]", "result": 20, "unit": "ng/mL"},
      {"measurement": "EC50", "setting": "[3]", "result": 50, "unit": "ng/mL"},
      {"measurement": "IC50", "setting": "[4]", "result": 1, "unit": "nM"},
      {"measurement": "change in vivo at 3 mg/kg", "setting": "[5]; [6]", "result": "6 ± 3", "unit": "%"},
      {"measurement": "change in vivo at 3 mg/kg", "setting": "[5]; [7]", "result": "-10 ± 4", "unit": "%"}
    ]},
    {"smiles": "Cn1c(=O)[nH]c2nc3ccc(OCCCC(=O)NC4CCCCC4)cc3cc21", "note": "[Example 19, N-Cyclohexyl-4-[(2,3-dihydro-1-methyl-2-oxo 1H-imidazo[4,5-b]quinolin-7-yl)oxy]butanamide]", "values": [
      {"measurement": "ED50", "setting": "[1]", "result": 8.3, "unit": "mg/kg"},
      {"measurement": "EC50", "setting": "[2]", "result": 9, "unit": "ng/mL"},
      {"measurement": "EC50", "setting": "[3]", "result": 70, "unit": "ng/mL"},
      {"measurement": "IC50", "setting": "[4]", "result": 700, "unit": "nM"}
    ]},
    {"smiles": "COC(=O)CN(C(=O)CCCOc1ccc2nc3[nH]c(=O)[nH]c3cc2c1)C1CCCCC1", "note": "[Example 21, N-Cyclohexyl-N-[4-[(2,3-dihydro-2-oxo-1H-imidazo[4,5-b]quinolin-7-yl)oxy]-1-oxobutyl]glycine Methyl Ester]", "values": [
      {"measurement": "ED50", "setting": "[1]", "result": "< 3", "unit": "mg/kg"},
      {"measurement": "EC50", "setting": "[2]", "result": 0.8, "unit": "ng/mL"},
      {"measurement": "EC50", "setting": "[3]", "result": 2.5, "unit": "ng/mL"},
      {"measurement": "IC50", "setting": "[4]", "result": 0.5, "unit": "nM"},
      {"measurement": "change in vivo at 3 mg/kg", "setting": "[5]; [6]", "result": 26, "unit": "%"},
      {"measurement": "change in vivo at 3 mg/kg", "setting": "[5]; [7]", "result": -26, "unit": "%"}
    ]},
    {"smiles": "CN(C(=O)CCCOc1ccc2nc3[nH]c(=O)[nH]c3cc2c1)C1CCCCC1", "note": "[Example 30, N-Cyclohexyl-N-methyl-4-[(2,3-dihydro-2-oxo-1H-imidazo[4,5-b]quinolin-7-yl)oxy]butanamide]", "values": [
      {"measurement": "ED50", "setting": "[1]", "result": 2.4, "unit": "mg/kg"},
      {"measurement": "EC50", "setting": "[2]", "result": 1, "unit": "ng/mL"},
      {"measurement": "EC50", "setting": "[3]", "result": 2, "unit": "ng/mL"},
      {"measurement": "IC50", "setting": "[4]", "result": 2, "unit": "nM"},
      {"measurement": "change in vivo at 0.03 mg/kg", "setting": "[5]; [6]", "result": "8 ± 2", "unit": "%"},
      {"measurement": "change in vivo at 0.03 mg/kg", "setting": "[5]; [7]", "result": -3, "unit": "%"},
      {"measurement": "change in vivo at 0.3 mg/kg", "setting": "[5]; [6]", "result": "41 ± 5", "unit": "%"},
      {"measurement": "change in vivo at 0.3 mg/kg", "setting": "[5]; [7]", "result": "-27 ± 6", "unit": "%"},
      {"measurement": "change in vivo at 3 mg/kg", "setting": "[5]; [6]", "result": "35 ± 2", "unit": "%"},
      {"measurement": "change in vivo at 3 mg/kg", "setting": "[5]; [7]", "result": "-30 ± 2", "unit": "%"}
    ]},
    {"smiles": "CN(C(=O)CCCOc1ccc2nc3nc(O)n(C)c3cc2c1)C1CCCCC1", "note": "[Example 31, N-Cyclohexyl-N-methyl-4-[(2,3-dihydro-1-methyl-2-oxo-1H-imidazo[4,5-b]quinolin-7-yl]oxo]butanamide]", "values": [
      {"measurement": "ED50", "setting": "[1]", "result": 2.1, "unit": "mg/kg"},
      {"measurement": "EC50", "setting": "[2]", "result": 18, "unit": "ng/mL"},
      {"measurement": "EC50", "setting": "[3]", "result": 20, "unit": "ng/mL"},
      {"measurement": "IC50", "setting": "[4]", "result": 200, "unit": "nM"},
      {"measurement": "change in vivo at 0.3 mg/kg", "setting": "[5]; [6]", "result": 0, "unit": "%"},
      {"measurement": "change in vivo at 0.3 mg/kg", "setting": "[5]; [7]", "result": "-28 ± 5", "unit": "%"},
      {"measurement": "change in vivo at 3 mg/kg", "setting": "[5]; [6]", "result": "3 ± 6", "unit": "%"},
      {"measurement": "change in vivo at 3 mg/kg", "setting": "[5]; [7]", "result": "-36 ± 3", "unit": "%"}
    ]},
    {"smiles": "CN(C(=O)CCCCOc1ccc2nc3[nH]c(=O)[nH]c3cc2c1)C1CCCCC1", "note": "[Example 32, N-Cyclohexyl-N-methyl-5-[(2,3-dihydro-2-oxo-1H-imidazo[4,5-b]quinolin-7-yl)oxo]pentanamide]", "values": [
      {"measurement": "ED50", "setting": "[1]", "result": 3.8, "unit": "mg/kg"},
      {"measurement": "EC50", "setting": "[2]", "result": 0.8, "unit": "ng/mL"},
      {"measurement": "EC50", "setting": "[3]", "result": 3, "unit": "ng/mL"},
      {"measurement": "IC50", "setting": "[4]", "result": 2, "unit": "nM"},
      {"measurement": "change in vivo at 0.3 mg/kg", "setting": "[5]; [6]", "result": "18 ± 4", "unit": "%"},
      {"measurement": "change in vivo at 0.3 mg/kg", "setting": "[5]; [7]", "result": "-27 ± 10", "unit": "%"}
    ]},
    {"smiles": "CN(C(=O)CCCCOc1ccc2nc3[nH]c(=O)[nH]c3cc2c1)C1CCCCCC1", "note": "[Example 33, N-Cycloheptyl-N-methyl-5-[(2,3-dihydro-2-oxo-1H-imidazo[4,5-b]quinolin-7-yl)oxy]pentanamide]", "values": [
      {"measurement": "ED50", "setting": "[1]", "result": 1.7, "unit": "mg/kg"},
      {"measurement": "EC50", "setting": "[2]", "result": 0.6, "unit": "ng/mL"},
      {"measurement": "EC50", "setting": "[3]", "result": 2, "unit": "ng/mL"},
      {"measurement": "IC50", "setting": "[4]", "result": 0.4, "unit": "nM"},
      {"measurement": "change in vivo at 0.3 mg/kg", "setting": "[5]; [6]", "result": "27 ± 8", "unit": "%"},
      {"measurement": "change in vivo at 0.3 mg/kg", "setting": "[5]; [7]", "result": "-34 ± 2", "unit": "%"}
    ]}
  ]
}
